Reference: BindingDB's records for doi:10.1021/acschembio.7b00707 (Istituto Italiano di Tecnologia, 2017)

Target: Breast cancer type 2 susceptibility protein/DNA repair protein RAD51 homolog 1 (Homo sapiens, UniProt P51587+Q06609)
Assay: ELISA assay
From the text: This assay is an efficient tool for directly measuring inhibition of the BRC4−Rad51 interaction, at a molecular level, which is described by Rajendra et al.

Breast cancer type 2 susceptibility protein/DNA repair protein RAD51 homolog 1, sequence (P51587 whole entry V2466A): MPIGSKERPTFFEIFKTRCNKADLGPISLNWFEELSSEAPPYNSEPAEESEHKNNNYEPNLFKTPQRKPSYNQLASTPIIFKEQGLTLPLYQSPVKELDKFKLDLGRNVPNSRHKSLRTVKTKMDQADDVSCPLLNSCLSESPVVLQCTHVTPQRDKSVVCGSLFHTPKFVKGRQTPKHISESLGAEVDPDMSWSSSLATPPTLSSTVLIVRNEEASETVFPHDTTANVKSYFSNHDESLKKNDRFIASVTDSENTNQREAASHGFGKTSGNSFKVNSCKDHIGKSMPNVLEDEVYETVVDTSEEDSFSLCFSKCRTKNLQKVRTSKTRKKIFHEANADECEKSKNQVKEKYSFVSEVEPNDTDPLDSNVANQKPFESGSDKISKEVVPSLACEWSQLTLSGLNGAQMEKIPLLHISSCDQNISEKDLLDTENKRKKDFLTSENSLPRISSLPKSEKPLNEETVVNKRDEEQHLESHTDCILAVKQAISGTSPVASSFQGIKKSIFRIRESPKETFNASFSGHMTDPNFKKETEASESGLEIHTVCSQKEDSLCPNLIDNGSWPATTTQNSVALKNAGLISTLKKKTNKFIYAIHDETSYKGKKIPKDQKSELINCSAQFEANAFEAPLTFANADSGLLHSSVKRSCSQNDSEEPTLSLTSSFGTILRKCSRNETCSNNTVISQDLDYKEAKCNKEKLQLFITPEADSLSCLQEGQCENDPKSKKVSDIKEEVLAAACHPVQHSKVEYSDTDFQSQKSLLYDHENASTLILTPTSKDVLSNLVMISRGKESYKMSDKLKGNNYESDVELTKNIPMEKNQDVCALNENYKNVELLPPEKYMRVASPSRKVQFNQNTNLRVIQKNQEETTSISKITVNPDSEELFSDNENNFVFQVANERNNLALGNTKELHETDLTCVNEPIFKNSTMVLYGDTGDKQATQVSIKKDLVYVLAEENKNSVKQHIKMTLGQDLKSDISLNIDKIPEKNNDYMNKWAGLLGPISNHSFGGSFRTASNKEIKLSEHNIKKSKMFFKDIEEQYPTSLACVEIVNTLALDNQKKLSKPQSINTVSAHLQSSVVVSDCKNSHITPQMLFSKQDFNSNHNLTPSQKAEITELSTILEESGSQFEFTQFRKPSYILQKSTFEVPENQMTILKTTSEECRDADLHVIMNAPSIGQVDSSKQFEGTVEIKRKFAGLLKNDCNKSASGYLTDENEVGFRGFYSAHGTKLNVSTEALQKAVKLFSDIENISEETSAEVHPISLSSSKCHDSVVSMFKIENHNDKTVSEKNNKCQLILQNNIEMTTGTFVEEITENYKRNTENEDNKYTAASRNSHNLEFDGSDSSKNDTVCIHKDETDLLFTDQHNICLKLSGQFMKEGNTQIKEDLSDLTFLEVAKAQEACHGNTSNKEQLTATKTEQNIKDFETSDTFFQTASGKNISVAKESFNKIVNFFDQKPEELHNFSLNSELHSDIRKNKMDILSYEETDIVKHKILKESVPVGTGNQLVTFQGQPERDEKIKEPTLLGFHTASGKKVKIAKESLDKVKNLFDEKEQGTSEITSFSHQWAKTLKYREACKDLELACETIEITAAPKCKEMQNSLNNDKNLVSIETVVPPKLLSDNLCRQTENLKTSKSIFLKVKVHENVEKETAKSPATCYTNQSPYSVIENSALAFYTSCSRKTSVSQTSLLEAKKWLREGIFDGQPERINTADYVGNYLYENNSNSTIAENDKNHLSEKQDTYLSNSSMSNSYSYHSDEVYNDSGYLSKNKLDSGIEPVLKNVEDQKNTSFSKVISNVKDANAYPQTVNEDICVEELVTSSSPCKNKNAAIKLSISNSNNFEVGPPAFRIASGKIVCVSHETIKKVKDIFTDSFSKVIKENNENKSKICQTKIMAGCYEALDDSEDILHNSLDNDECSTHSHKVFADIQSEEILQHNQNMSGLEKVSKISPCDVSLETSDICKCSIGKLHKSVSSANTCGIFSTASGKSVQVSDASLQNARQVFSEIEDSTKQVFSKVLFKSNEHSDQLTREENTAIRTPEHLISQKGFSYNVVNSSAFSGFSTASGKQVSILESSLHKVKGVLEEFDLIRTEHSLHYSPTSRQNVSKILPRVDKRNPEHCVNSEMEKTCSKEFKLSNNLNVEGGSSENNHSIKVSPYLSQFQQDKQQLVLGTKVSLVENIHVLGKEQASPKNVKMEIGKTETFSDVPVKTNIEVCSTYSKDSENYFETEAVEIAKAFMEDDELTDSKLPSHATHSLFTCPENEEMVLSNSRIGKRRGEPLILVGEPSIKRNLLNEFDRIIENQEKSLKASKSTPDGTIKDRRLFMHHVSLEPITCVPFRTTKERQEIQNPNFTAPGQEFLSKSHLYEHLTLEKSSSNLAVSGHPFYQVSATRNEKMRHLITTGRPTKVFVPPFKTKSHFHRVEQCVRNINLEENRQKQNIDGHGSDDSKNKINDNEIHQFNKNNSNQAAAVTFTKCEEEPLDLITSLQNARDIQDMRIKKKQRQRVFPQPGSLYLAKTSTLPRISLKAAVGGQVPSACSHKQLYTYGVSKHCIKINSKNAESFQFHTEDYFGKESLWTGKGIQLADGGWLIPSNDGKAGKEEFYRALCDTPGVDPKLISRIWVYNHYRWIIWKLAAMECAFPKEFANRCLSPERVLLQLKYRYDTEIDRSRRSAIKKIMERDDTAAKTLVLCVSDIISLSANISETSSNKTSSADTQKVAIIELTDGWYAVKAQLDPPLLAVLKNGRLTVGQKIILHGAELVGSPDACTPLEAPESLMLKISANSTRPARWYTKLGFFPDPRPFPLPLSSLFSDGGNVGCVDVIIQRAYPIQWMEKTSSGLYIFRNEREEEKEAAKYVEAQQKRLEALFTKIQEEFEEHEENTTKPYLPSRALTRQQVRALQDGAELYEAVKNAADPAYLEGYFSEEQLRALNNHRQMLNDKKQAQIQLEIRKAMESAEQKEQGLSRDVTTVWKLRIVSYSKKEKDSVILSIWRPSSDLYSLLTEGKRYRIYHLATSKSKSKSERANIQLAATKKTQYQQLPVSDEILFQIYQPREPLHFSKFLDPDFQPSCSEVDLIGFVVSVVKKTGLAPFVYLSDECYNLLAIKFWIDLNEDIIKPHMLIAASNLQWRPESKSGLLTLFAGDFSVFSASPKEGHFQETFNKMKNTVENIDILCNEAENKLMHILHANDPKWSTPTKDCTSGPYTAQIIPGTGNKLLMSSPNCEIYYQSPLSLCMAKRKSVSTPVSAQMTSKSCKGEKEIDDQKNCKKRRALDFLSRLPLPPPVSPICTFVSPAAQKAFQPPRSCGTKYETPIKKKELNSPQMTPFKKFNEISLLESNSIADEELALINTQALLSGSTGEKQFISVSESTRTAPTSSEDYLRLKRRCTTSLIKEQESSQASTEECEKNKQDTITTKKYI
Breast cancer type 2 susceptibility protein/DNA repair protein RAD51 homolog 1, sequence (Q06609 whole entry): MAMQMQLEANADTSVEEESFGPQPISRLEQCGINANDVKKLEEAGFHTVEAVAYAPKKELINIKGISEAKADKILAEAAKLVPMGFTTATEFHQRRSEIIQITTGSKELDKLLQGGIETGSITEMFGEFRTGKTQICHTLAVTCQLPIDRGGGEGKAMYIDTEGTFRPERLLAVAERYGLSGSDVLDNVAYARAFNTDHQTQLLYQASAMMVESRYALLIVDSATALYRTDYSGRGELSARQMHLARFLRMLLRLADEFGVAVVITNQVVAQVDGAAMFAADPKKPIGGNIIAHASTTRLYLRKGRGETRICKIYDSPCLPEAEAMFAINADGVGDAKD

Row | Structure (SMILES) | EC50
1 | O=C(CSc1nnc(Cn2c(=O)sc3ccccc32)n1CCc1ccccc1)NC1CCCC1 [F0665-0303] | 53 µM
2 | O=C(CSc1nnc(Cn2c(=O)sc3ccccc32)n1CCCc1ccccc1)NC1CCCC1 [N-cyclopentyl-2-((5-((2-oxobenzo[d]thiazol-3(2H)-yl)methyl)-4-phenpropyl-4H-1,2,4-triazol-3-yl)thio)acetamide] | 25 µM
